Source: patent US20170189419A1, “PHARMACEUTICAL COMPOSITION FOR TREATING PROSTATE CANCER” (MA SHEN KAI RUEI CO., LTD., priority 2015, published 2017)

What was measured:
[1] = tested on: human prostate-cancer cells PC3; assay: MTT survival assay, PC3 prostate cancer cells; format: cell-based; settings: for half-maximal inhibitory concentration (IC50): PC3 cells; for survival rate / growth of prostate cancer cell: PC-3 cells, compound isolated from Extraction A
Source text: (§1) According to the present invention, the effects such as treating Prostate cancer, inhibiting the growth of Prostate cancer cell and others, of Antroquinonol B (AnQB) and/or Anctin K (AnK) may be tested by using any of the test methods used in the prior arts, for example, MTT assay of using 3-(4, 5-dimethylthiazol-2-yl)-2, S-diphenyl tetrazolium bromide (MTT) to determine cell survival rates of Prostate cancer cell lines.
(§2) The Antroquinonol B (AnQB) and Anctin K (AnK) separately isolated from the Extraction A of Example 1 were added into the culture media of human prostate-cancer cells, PC3 or DU-145, to test for tumor cell survival by using anti-cancer drug screen model. This survival assay was carried out with the widely known MTT (3-[4,5-dimethylthiazol-2-yl]2,5-diphenyltetrazolium bromide) assay.
(§3) The human prostate cancer cell lines, PC-3 and DU-145 were cultivated in media containing fetal calf serum for 18 hours. The proliferated cells were washed once with PBS, then treated with 1× trypsin-EDTA and centrifuged at 2500 rpm for […]. The supernatant was discarded and the cell pellet was re-suspended in 200 ml of fresh culture medium by gently shaking. The cells were placed in a 96-well plate.
(§4) Subsequently, the plates were read on an ELISA reader to determine the survival rates. The half maximal inhibitory concentration (IC50) values were calculated and results of ex vivo survival assay were thus obtained.
(§5) By using the same manner as the method described above, respectively human Prostate cancer cell line PC-3 and DU-145 was cultured. After then, the pharmaceutical compositions A˜F of the present invention was applied separately, and then MTT assay for each sample was measured to assess the inhibition effectiveness of various cancer cell activity while using pharmaceutical compositions A˜F of the present invention.

[2] = tested on: human prostate-cancer cells DU-145; assay: MTT survival assay, DU-145 prostate cancer cells; format: cell-based; settings: DU-145 cells; for survival rate / growth of prostate cancer cell: compound isolated from Extraction A
Source text: as §1, §2, §3, §4, §5

C=C(CC[C@@H](C(=O)O)[C@H]1CC[C@@]2(C)C3=CC[C@H]4C(C)(C)[C@@H](O)CC[C@]4(C)C3=CC[C@]12C)C(C)C [Anctin K]
half-maximal inhibitory concentration (IC50) [1]: relatively low
survival rate / growth of prostate cancer cell [1]: can inhibit the growth
half-maximal inhibitory concentration (IC50) [2]: relatively low
survival rate / growth of prostate cancer cell [2]: can inhibit the growth

COC1=C(OC)[C@H](O)[C@H](C/C=C(\C)CC/C=C(/C)C/C=C/C(C)(C)O)[C@@H](C)C1=O [Antroquinonol B]
half-maximal inhibitory concentration (IC50) [1]: relatively low
survival rate / growth of prostate cancer cell [1]: can inhibit the growth
half-maximal inhibitory concentration (IC50) [2]: relatively low
survival rate / growth of prostate cancer cell [2]: can inhibit the growth
